One compound from publication PMC6542772, “Plant Cytosolic Ascorbate Peroxidase with Dual Catalytic Activity Modulates Abiotic Stress Tolerances” (iScience, 2019) can be followed below.

What all share (assay type): biochemical
Assay [1] addresses T1, CytAPX1 from O. sativa (Os) (Oryza sativa, UniProt Q10N21).
T1 construct: gene APX1; recombinant from E. coli, purified
T1 sequence (Q10N21 2-250): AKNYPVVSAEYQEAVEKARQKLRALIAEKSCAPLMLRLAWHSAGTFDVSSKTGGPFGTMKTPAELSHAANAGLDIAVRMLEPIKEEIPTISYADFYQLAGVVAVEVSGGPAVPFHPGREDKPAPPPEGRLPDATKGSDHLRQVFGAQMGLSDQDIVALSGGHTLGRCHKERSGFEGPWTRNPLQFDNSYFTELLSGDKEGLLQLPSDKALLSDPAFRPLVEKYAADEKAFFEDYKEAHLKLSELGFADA
The assay can be described thus: APX activity assay, in-gel and in solution. To be noted: H2O2 co-substrate.

Assay [2] addresses T2, OgCytAPX1 (Oncidium cytosolic ascorbate peroxidase 1) (Oncidium hybrid cultivar, UniProt B8XF08).
T2 construct: full length, 250 residues, ~27 kDa; cloned from pseudobulb mRNA; MBP fusion (pMAL-c5x) from E. coli BL21, MBP removed by factor Xa
Put plainly: enzyme kinetics, Lineweaver-Burk. To be noted: H2O2 co-substrate; APX activity.

In assay [3] the target is T3, CytAPX1 from G. max (Gm) (Glycine max, UniProt Q43758).
T3 construct: gene apx1; recombinant from E. coli, purified
T3 sequence (Q43758 1-250): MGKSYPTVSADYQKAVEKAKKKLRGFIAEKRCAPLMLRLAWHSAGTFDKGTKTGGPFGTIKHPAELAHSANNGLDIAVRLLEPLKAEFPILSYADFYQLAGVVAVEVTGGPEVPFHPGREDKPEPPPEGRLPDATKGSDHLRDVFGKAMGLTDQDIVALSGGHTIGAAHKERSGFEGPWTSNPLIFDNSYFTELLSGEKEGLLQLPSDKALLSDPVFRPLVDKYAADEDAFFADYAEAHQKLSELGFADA
Put plainly: APX activity assay, in-gel and in solution. To be noted: H2O2 co-substrate.

The target of assay [4] is T4, AtCytAPX1 (Arabidopsis thaliana, UniProt Q05431).
T4 construct: gene APX1; ~27 kDa; MBP fusion from E. coli, MBP removed by factor Xa
T4 sequence (Q05431 1-250): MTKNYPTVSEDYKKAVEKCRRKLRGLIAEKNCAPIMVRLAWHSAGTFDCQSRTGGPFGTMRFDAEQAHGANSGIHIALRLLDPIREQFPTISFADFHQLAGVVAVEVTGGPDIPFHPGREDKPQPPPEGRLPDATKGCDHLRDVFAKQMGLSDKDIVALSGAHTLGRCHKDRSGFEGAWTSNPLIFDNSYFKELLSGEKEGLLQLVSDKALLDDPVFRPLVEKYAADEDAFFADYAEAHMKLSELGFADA
Put plainly: APX activity assay, in-gel and in solution. To be noted: H2O2 co-substrate.

Each structure is given as a SMILES string.

T2 sequence (B8XF08 entry or part of it): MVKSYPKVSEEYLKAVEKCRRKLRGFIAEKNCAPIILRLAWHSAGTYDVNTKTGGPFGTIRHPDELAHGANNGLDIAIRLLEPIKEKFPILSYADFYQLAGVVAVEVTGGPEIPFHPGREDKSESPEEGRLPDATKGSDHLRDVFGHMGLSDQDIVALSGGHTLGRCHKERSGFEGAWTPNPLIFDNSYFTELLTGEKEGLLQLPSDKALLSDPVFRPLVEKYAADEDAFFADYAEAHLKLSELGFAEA

For `O=C1O[C@H]([C@@H](O)CO)C(O)=C1O` [AsA], the “APX activity assay, in-gel and in solution” value is “Recombinant proteins from G. max, O. sativa, and Z. mays displayed both AsA and GSH” in assay [1]; “Recombinant proteins from G. max, O. sativa, and Z. mays displayed both AsA and GSH” in assay [3]; “AtCytAPX1 displayed only APX activity” in assay [4]. Moreover, in assay [2], the Michaelis constant (Km) was found to be 616 µM.

A word on the Km: it is the substrate concentration at which the rate is half of its maximum.
